From article PMC7385489, “β-hydroxybutyrate and hydroxycarboxylic acid receptor 2 agonists activate the AKT, ERK and AMPK pathways, which are involved in bovine neutrophil chemotaxis” (Scientific Reports, 2020)

Target: hydroxycarboxylic acid receptor 2 (HCA2) (Bos taurus, UniProt G3N168)
Test: Fura-2 calcium mobilization in native bovine neutrophils expressing HCA2
Format: cell-based

Chain of hydroxycarboxylic acid receptor 2 (HCA2) (G3N168 1-379): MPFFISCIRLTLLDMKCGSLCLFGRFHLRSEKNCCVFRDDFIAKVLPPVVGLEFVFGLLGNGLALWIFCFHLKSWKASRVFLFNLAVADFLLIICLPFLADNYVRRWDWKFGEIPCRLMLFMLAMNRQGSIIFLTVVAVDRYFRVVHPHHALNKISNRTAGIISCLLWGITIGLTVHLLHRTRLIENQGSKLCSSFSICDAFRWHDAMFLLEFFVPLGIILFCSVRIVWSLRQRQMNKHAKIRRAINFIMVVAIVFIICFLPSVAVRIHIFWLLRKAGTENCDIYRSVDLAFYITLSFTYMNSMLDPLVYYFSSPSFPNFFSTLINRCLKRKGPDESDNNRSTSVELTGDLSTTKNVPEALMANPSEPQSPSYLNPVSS

SMILES | EC50 [µM]
CC(O)CC(=O)O (stereo not drawn) [BHB, β-hydroxybutyrate] | 2650
O=C(O)c1n[nH]c2c1C[C@H]1C[C@@H]21 [MK-1903, (1aR,5aR)1a,3,5,5a-Tetrahydro-1H-2,3-diaza-cyclopropa[a]pentalene-4-carboxylic acid] | 0.0338
